This is an account of results in patent publication US20260297542A1, “HERBICIDE RESISTANT PLANTS” (SYNGENTA CROP PROTECTION AG, priority 2023, published 2026).

For orientation: inhibition means how much of the control response was suppressed.

Substitutions are numbered along the chain they refer to.

What all share (assay): fluorescent Protoporphyrinogen Oxidase assay, crude extract
Holding throughout (format): biochemical
Holding throughout (conditions): read-out: percentage inhibition

Experiment [1] addresses T1, AtPPO1 S305L Y426V (SEQ ID NO.125) (Arabidopsis thaliana, UniProt P55826, S305L/Y426V).
T1 construct: made in house; host or cells: E. coli BL21 (DE3) hemG, crude extract
T1 sequence (P55826 35-537 S305L/Y426V): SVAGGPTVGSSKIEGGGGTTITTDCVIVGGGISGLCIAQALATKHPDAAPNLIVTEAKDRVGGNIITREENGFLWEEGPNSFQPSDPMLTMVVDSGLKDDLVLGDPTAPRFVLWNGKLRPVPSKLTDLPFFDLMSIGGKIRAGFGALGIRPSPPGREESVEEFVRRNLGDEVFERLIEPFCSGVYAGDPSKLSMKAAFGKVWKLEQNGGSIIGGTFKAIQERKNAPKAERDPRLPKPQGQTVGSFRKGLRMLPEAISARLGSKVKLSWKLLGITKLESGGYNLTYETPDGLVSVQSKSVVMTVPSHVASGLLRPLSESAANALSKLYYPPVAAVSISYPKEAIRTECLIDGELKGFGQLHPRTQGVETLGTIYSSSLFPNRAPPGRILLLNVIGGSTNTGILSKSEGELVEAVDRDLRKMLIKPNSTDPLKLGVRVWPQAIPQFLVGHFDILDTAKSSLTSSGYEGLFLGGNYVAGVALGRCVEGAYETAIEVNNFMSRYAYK

The target of another experiment is T2, WT (SEQ ID NO.1) AtPPO1 (Arabidopsis thaliana, UniProt P55826).
T2 construct: made in house; host or cells: E. coli BL21 (DE3) hemG, crude extract
T2 sequence (P55826 35-537): T1 sequence (P55826 35-537 S305L/Y426V) with L271S, V392Y

For experiment [2], the target named is T3, AtPPO1 S305L Y426V L479M (SEQ ID NO.131) (Arabidopsis thaliana, UniProt P55826, L479M/S305L/Y426V).
T3 construct: made in house; host or cells: E. coli BL21 (DE3) hemG, crude extract
T3 sequence (P55826 35-537 S305L/Y426V/L479M): T1 sequence (P55826 35-537 S305L/Y426V) with L445M

For the compound `CCOC(=O)COc1ncccc1Oc1cc(-n2c(=O)cc(C(F)(F)F)n(C)c2=O)c(F)cc1Cl` [Herbicide A, epyrifenacil], in experiment [1], the inhibition at 0.1 ppm is 0%, the inhibition at 1 ppm is 11%, the inhibition at 10 ppm was 63% and the inhibition at 100 ppm was 87%. Also, at WT (SEQ ID NO.1) AtPPO1, the inhibition at 0.1 ppm was determined as 94%, the inhibition at 1 ppm was determined as 100%, the inhibition at 10 ppm was found to be 97% and the inhibition at 100 ppm turned out to be 100%. In experiment [2], the inhibition at 0.1 ppm stood at 0%, the inhibition at 1 ppm turned out to be 52%, the inhibition at 10 ppm came out at 87% and the inhibition at 100 ppm stood at 100%.

Take `C#CCN1C(=O)C(F)(F)Oc2cc(F)c(-n3c(=O)n(C)c(=S)n(C)c3=O)cc21` [Herbicide B, trifludimoxazin]: in experiment [1], the inhibition at 0.1 ppm was 87%, the inhibition at 1 ppm was found to be 99%, the inhibition at 10 ppm was found to be 100% and the inhibition at 100 ppm is 100%. Moreover, on WT (SEQ ID NO.1) AtPPO1, the inhibition at 0.1 ppm was found to be 97%, the inhibition at 1 ppm was 97%, the inhibition at 10 ppm amounted to 96% and the inhibition at 100 ppm was determined as 100%. Besides, in experiment [2], the inhibition at 0.1 ppm turned out to be 99%, the inhibition at 1 ppm is 96%, the inhibition at 10 ppm was found to be 100% and the inhibition at 100 ppm was determined as 100%.

On to `CCOC(=O)C1(C)CC(c2cc(-n3c(=O)cc(C(F)(F)F)n(C)c3=O)c(F)cc2Cl)=NO1` (stereo not drawn) [Herbicide C, 3-(2-chloro-4-fluoro-5-(3-methyl-2,6-dioxo-4-trifluoromethyl-3,6-dihydropyrimidin-1(2H)-yl)phenyl)-5-methyl-4,5-dihydroisoxazole-5-carboxylic acid ethyl ester], for which, in experiment [1], the inhibition at 0.1 ppm is 0%, the inhibition at 1 ppm was found to be 31%, the inhibition at 10 ppm came to 81% and the inhibition at 100 ppm was 97%. Besides, on WT (SEQ ID NO.1) AtPPO1, the inhibition at 0.1 ppm worked out at 91%, the inhibition at 1 ppm worked out at 91%, the inhibition at 10 ppm stood at 98% and the inhibition at 100 ppm worked out at 93%. In experiment [2], the inhibition at 0.1 ppm was determined as 28%, the inhibition at 1 ppm came to 59%, the inhibition at 10 ppm is 90% and the inhibition at 100 ppm turned out to be 100%.

On to `CCOC(=O)[C@]1(C)CC(c2cc(-n3c(=O)n(C)c(=S)n(C)c3=O)c(F)cc2Cl)=NO1` [Herbicide D, ethyl (5S)-3-[2-chloro-5-(3,5-dimethyl-2,6-dioxo-4-thioxo-1,3,5-triazinan-1-yl)-4-fluoro-phenyl]-5-methyl-4H-isoxazole-5-carboxylate], for which, in experiment [1], the inhibition at 0.1 ppm came to 0%, the inhibition at 1 ppm stood at 10%, the inhibition at 10 ppm worked out at 53% and the inhibition at 100 ppm turned out to be 83%. In addition, at WT (SEQ ID NO.1) AtPPO1, the inhibition at 0.1 ppm was 91%, the inhibition at 1 ppm came to 90%, the inhibition at 10 ppm is 96% and the inhibition at 100 ppm was determined as 100%. Further, in experiment [2], the inhibition at 0.1 ppm was found to be 4%, the inhibition at 1 ppm was 46%, the inhibition at 10 ppm was 76% and the inhibition at 100 ppm amounted to 97%.

On to `CC(C)N(C)S(=O)(=O)NC(=O)c1cc(-n2c(=O)cc(C(F)(F)F)n(C)c2=O)c(F)cc1Cl` [Herbicide E, saflufenacil], for which, in experiment [1], the inhibition at 0.1 ppm was 0%, the inhibition at 1 ppm worked out at 2%, the inhibition at 10 ppm amounted to 50% and the inhibition at 100 ppm was 84%. In addition, at WT (SEQ ID NO.1) AtPPO1, the inhibition at 0.1 ppm was found to be 91%, the inhibition at 1 ppm stood at 97%, the inhibition at 10 ppm is 100% and the inhibition at 100 ppm came to 100%. For the same compound, in experiment [2], the inhibition at 0.1 ppm amounted to 0%, the inhibition at 1 ppm was found to be 28%, the inhibition at 10 ppm was determined as 70% and the inhibition at 100 ppm turned out to be 87%.
